Source: EP0013144A1, “Substituted diphenylamine derivatives, compositions and herbicidal uses thereof, and processes for their preparation” (ICI AUSTRALIA LIMITED, priority 1978, dated 1980)

What was measured:
Assay type in all cases: in vivo
Senecio vulgaris = test: Post-emergence herbicidal test, young pot plants (Example 33); settings: after 14 days
Method in brief: (§1)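 Compounds were emulsified with Span 80 and Tween 20 in methylcyclohexanone, diluted with water and sprayed. Post-emergence, young pot plants were sprayed and scored at 14 days. Pre-emergence, seeds sown in fibre-tray soil were sprayed, thinly covered with fresh soil and scored at 21 days (0 = 0–20% damage, 5 = complete kill).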

Rice = test: as above; parameters: key: 0 is 0 to 20% damage; 5 is complete kill; settings: after 14 days
Experimental: (§2) The compounds were formulated for test by mixing an appropriate amount with 5 ml of an emulsion prepared by diluting 160 ml of a solution containing 21.S g per litre of "Span" 80 and 78.2 g per litre of "Tween" 20 in methylcyclohexanone to 500 ml with water. "Span" 80 is a Trade Mark for a surface-active agent comprising sorbitan monolaurate. "Tween" 20 is a Trade Mark for a surface-active agent comprising a condensate of sorbitan monolaurate with 20 molar proportions of ethylene oxide. Each 5 ml emulsion containing a test compound was'then diluted to 40 ml with water and sprayed on to young pot plants (post-emergence test) of the species named in Table 5 below. Damage to test plants was assessed after 14 days on a scale of 0 to 5 where 0 is 0 to 20% damage and 5 is complete kill. In a test for pre-emergence herbicidal activity, seeds of the test plants were sown in a shallow slit formed in the surface of soil in fibre trays. The surface was then levelled and sprayed, and fresh soil then spread thinly over the sprayed surface. Assessment of herbicidal damage was carried out after 21 days using the same scale of 0 to 5 as the post-emergence test. In both cases the degree of herbicidal damage was assessed by comparison with untreated control plants. A dash (-) means that no experiment was carried out.

Maize = test: as above; parameters: key: 0 is 0 to 20% damage; 5 is complete kill; settings: after 14 days
Experimental: as §2

Wild Oats [1] = test: Pre-emergence herbicidal activity (Example 31); settings: after three weeks
Method in brief: (§3)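 Ratings run from 0 (0–25% damage) to 3 (75–99% kill), with 3+ meaning complete kill, assessed visually three weeks after spraying. Treatment was applied to soil right after sowing, before germination was triggered by overhead watering in the glasshouse.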

Mustard = test: Post-emergence herbicidal activity (Example 32); settings: 3 weeks after spraying
Method in brief: (§4)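 Compounds applied as diluted emulsifiable concentrates (toluene with nonylphenol ethoxylate/calcium dodecylbenzene sulfonate) or ball-milled aqueous suspensions, sprayed onto glasshouse plants about 10–12.5 cm tall. Damage assessed visually 3 weeks later versus untreated controls on a 0–3 scale (0 = 0–25% damage, 3 = 75–99% kill, 3+ = 100% kill).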

Japanese millet = test: Post-emergence herbicidal activity (Example 32); settings: 3 weeks after spraying
Method in brief: as §4

Ipomea = test: Post-emergence herbicidal activity (Example 32); settings: 3 weeks after spraying
Method in brief: as §4

Sunflower = test: Post-emergence herbicidal activity (Example 32); settings: 3 weeks after spraying
Method in brief: as §4

Wheat = test: Pre-emergence herbicidal activity (Example 31); parameters: key: 0-3 scale: 0 = 0-25% damage, 3 = 75-99% kill, 3+ = 100% kill; settings: after three weeks
Method in brief: as §3

Polygonum aviculare [2] = test: Pre-emergence herbicidal test, fibre trays (Example 33); settings: after 21 days
Method in brief: as §1

Amaranthus retroflexus = test: as above; settings: after 21 days
Method in brief: as §1

Winter wheat = test: Post-emergence herbicidal test, young pot plants (Example 33); parameters: key: 0 = 0-20% damage, 5 = complete kill, vs untreated control; settings: after 14 days
Experimental: as §2

Rape = test: as above; settings: 2.0 kg/ha, after 14 days
Method in brief: as §1

Polygonum aviculare [3] = test: as above; settings: 2.0 kg/ha, after 14 days
Method in brief: as §1

Chenopodium album = test: Pre-emergence herbicidal test, fibre trays (Example 33); settings: 2.0 kg/ha, after 21 days
Method in brief: as §1

Wild Oats [4] = test: Post-emergence herbicidal activity (Example 32); settings: 3 weeks after spraying
Method in brief: as §4

Row | SMILES | damage to plants, Ot (Wild Oats [1]; 1 kg/ha) | damage to plants, Ot (Wild Oats [1]; 5 kg/ha) | damage to plants, Ms (Mustard; 1 kg/ha) | damage to plants, Ms (Mustard; 5 kg/ha) | damage to plants, Jm (Japanese millet; 1 kg/ha) | damage to plants, Jm (Japanese millet; 5 kg/ha) | damage to plants, Ip (Ipomea; 1 kg/ha) | damage to plants, Ip (Ipomea; 5 kg/ha) | damage to plants, Sf (Sunflower; 1 kg/ha) | damage to plants, Sf (Sunflower; 5 kg/ha) | damage to plants, Wh (Wheat; 1 kg/ha) | damage to plants, Wh (Wheat; 5 kg/ha) | damage to test plants, Rp (Rape) | damage to test plants, Pi (Polygonum aviculare [3]) | damage to test plants, Sn (Senecio vulgaris; 2.0 kg/ha) | damage to test plants, Rc (Rice; 2.0 kg/ha) | damage to test plants, Mz (Maize; 2.0 kg/ha) | herbicidal damage, Ca (Chenopodium album) | herbicidal damage, Pi (Polygonum aviculare [2]; 2.0 kg/ha) | damage to test plants, Ww (Winter wheat; 2.0 kg/ha) | also measured
1 | COC(=O)C(C)Oc1ccc(Nc2ccc(Cl)cc2[N+](=O)[O-])cc1 (stereo not shown) [Compound 28] | 2 | 3+ (3+ represents 100% kill) | 0 (0 represents 0 to 25% damage) | 0 (0 represents 0 to 25% damage) | 3+ (3+ represents 100% kill) | 3+ (3+ represents 100% kill) | 0 (0 represents 0 to 25% damage) | 0 (0 represents 0 to 25% damage) | 0 (0 represents 0 to 25% damage) | 0 (0 represents 0 to 25% damage) | 0 (0 represents from 0 to 25% damage) | 2 | – | – | – | – | – | – | – | – | damage to test plants, Sn (Senecio vulgaris; 1.0 kg/ha): 0 (0 is 0 to 20% damage); damage to test plants, Rc (Rice; 1.0 kg/ha): 4; damage to test plants, Mz (Maize; 1.0 kg/ha): 5; herbicidal damage, Pi (Polygonum aviculare [2]; 1.0 kg/ha): 0 (0 is 0 to 20% damage); herbicidal damage, Am (Amaranthus retroflexus; 1.0 kg/ha): 0 (0 is 0 to 20% damage); damage to test plants, Ww (Winter wheat; 1.0 kg/ha): 4
2 | COC(=O)C(C)Oc1ccc(N(C)c2ccc(Cl)cc2[N+](=O)[O-])cc1 (stereo not shown) [Compound 27] | – | – | 0 (0 represents 0 to 25% damage) | 0 (0 represents 0 to 25% damage) | 3+ (3+ represents 100% kill) | 3+ (3+ represents 100% kill) | 0 (0 represents 0 to 25% damage) | 0 (0 represents 0 to 25% damage) | 0 (0 represents 0 to 25% damage) | 0 (0 represents 0 to 25% damage) | 0 (0 represents from 0 to 25% damage) | 1 | 0 (0 is 0 to 20% damage) | 0 (0 is 0 to 20% damage) | 1 | 4 | 5 | 0 (0 is 0 to 20% damage) | 0 (0 is 0 to 20% damage) | 4 | herbicidal damage, Am (Amaranthus retroflexus; 2.0 kg/ha): 0 (0 is 0 to 20% damage)
3 | C#CCN(c1ccc(OC(C)C(=O)OC)cc1)c1ccc(C(F)(F)F)cc1[N+](=O)[O-] (stereo not shown) [Compound 81] | – | – | 0 (0 represents 0 to 25% damage) | 0 (0 represents 0 to 25% damage) | 3+ (3+ represents 100% kill) | 3+ (3+ represents 100% kill) | 0 (0 represents 0 to 25% damage) | 0 (0 represents 0 to 25% damage) | 0 (0 represents 0 to 25% damage) | 0 (0 represents 0 to 25% damage) | – | – | 0 (0 is 0 to 20% damage) | 0 (0 is 0 to 20% damage) | – | 4 | 4 | 0 (0 is 0 to 20% damage) | 0 (0 is 0 to 20% damage) | 4 | damage to plants, Ot (Wild Oats [4]; 1 kg/ha): 3+ (3+ represents 100% kill); damage to plants, Ot (Wild Oats [4]; 5 kg/ha): 3+ (3+ represents 100% kill); herbicidal damage, Am (Amaranthus retroflexus; 2.0 kg/ha): 0 (0 is 0 to 20% damage)
4 | COC(=O)C(C)Oc1ccc(Nc2ccc(Br)cc2[N+](=O)[O-])cc1 (stereo not shown) [Compound 29] | 1 | 3+ (3+ represents 100% kill) | 0 (0 represents 0 to 25% damage) | 0 (0 represents 0 to 25% damage) | 3 (3 represents 75 to 99% kill) | 3+ (3+ represents 100% kill) | 0 (0 represents 0 to 25% damage) | 0 (0 represents 0 to 25% damage) | 0 (0 represents 0 to 25% damage) | 0 (0 represents 0 to 25% damage) | 1 | 1 | 1 | 0 (0 is 0 to 20% damage) | 4 | 5 | 5 | 0 (0 is 0 to 20% damage) | 0 (0 is 0 to 20% damage) | 4 | herbicidal damage, Am (Amaranthus retroflexus; 2.0 kg/ha): 0 (0 is 0 to 20% damage)
5 | COC(=O)C(C)Oc1ccc(N(C)c2ccc(Cl)cc2Cl)cc1 (stereo not shown) [Compound 1, Methyl 2-[4-(2,4-dichloro-N-methylanilino)phenoxy]-propionate] | 0 (0 represents from 0 to 25% damage) | 0 (0 represents from 0 to 25% damage) | 0 (0 represents 0 to 25% damage) | 0 (0 represents 0 to 25% damage) | 3+ (3+ represents 100% kill) | 3+ (3+ represents 100% kill) | 0 (0 represents 0 to 25% damage) | 0 (0 represents 0 to 25% damage) | 0 (0 represents 0 to 25% damage) | 0 (0 represents 0 to 25% damage) | 0 (0 represents from 0 to 25% damage) | 0 (0 represents from 0 to 25% damage) | 2 | 0 (0 is 0 to 20% damage) | 1 | 0 (0 is 0 to 20% damage) | 5 | – | – | 3 | –
6 | COC(=O)C(C)Oc1ccc(N(C)c2ccc(Br)cc2[N+](=O)[O-])cc1 (stereo not shown) [Compound 30] | 1 | 3 (3 represents 75 to 99% kill) | 0 (0 represents 0 to 25% damage) | 0 (0 represents 0 to 25% damage) | 3+ (3+ represents 100% kill) | 3+ (3+ represents 100% kill) | 0 (0 represents 0 to 25% damage) | 0 (0 represents 0 to 25% damage) | 0 (0 represents 0 to 25% damage) | 0 (0 represents 0 to 25% damage) | 0 (0 represents from 0 to 25% damage) | 0 (0 represents from 0 to 25% damage) | 1 | 0 (0 is 0 to 20% damage) | 2 | 4 | 5 | 0 (0 is 0 to 20% damage) | 0 (0 is 0 to 20% damage) | 4 | herbicidal damage, Am (Amaranthus retroflexus; 2.0 kg/ha): 1
